Assay results as given in US20220411480A1, “ANTITUMOR PEPTIDE AND USE THEREOF” (TOAGOSEI CO., LTD, priority 2018, published 2022).
Residues, ends and D or L forms follow the SMILES beside them.

How the values were obtained:
[1] = Antitumor activity evaluation test (1), cell viability by Cell Counting Kit-8 (WST-8); type: cell-based, human; settings: peptide 25 μM, 48 hours, relative to culture medium containing no peptide = 100%; read-out: A2058 cell viability (survival rate)
Method: (§1) The antitumor activity of the sample peptides synthesized in Test Example 1 was evaluated using human-derived cultured tumor cells as targets.
(§2) Specifically, currently commercially available human melanoma (A2058) cell lines were used as test tumor cells. In addition, a normal human mammary epithelial cell culture line (MCF-12F) was used for comparison. Here, culture solutions of respective cells are as follows. • (1) A2058 cells:
(§3) DMEM culture medium including 2 mM L-glutamine, 0.1 mM of non-essential amino acids, 50 units/mL of penicillin, 50 μg/mL of streptomycin, and 10% fetal bovine serum (FBS) (product, commercially available from Wako Pure Chemical Industries, Ltd.). • (2) MCF-12F cells:
(§4) DMEM/F12 culture medium including 20 ng/mL of recombinant EGF, 10 μg/mL of insulin, 0.5 μg/mL of hydrocortisone, and 10% FBS (product, commercially available from Wako Pure Chemical Industries, Ltd.).
(§5) A2058 cells and MCF-12F cells were cultured and prepared so that the number of cells per well in a 96-well plate was about 5×10^3. An amount of the culture medium in this case was 100 μL per well.
(§6) Next, the 96-well plate was placed in a CO2 incubator and pre-incubated under conditions of 37° C. and 5% CO2 for about 1 day (21 hours to 24 hours).
(§7) Then, peptide-containing test culture mediums for each concentration were prepared so that the concentrations of the sample peptides to be evaluated were 12.5 μM and 25 μM, and supplied to wells (that is, wells after the pre-incubation) in which 90μL of cells to be evaluated were cultured in each well. Then, the 96-well plate was returned to the CO2 incubator and incubated under conditions of 37° C. and 5% CO2 for 48 hours.
(§8) Here, the number of test wells (n) at peptide concentrations in peptide addition test groups was set to 3. Therefore, the value of the result shown in the following table is an average value of the results obtained in three test wells. First, the cell viability (%) was determined as follows.
(§9) After the incubation for 48 hours was completed, the culture medium in each well was replaced with 100 μL of a fresh culture medium containing no peptide, and additionally, 10μL of a cell proliferation measurement reagent “Cell Counting Kit-8” (product, commercially available from Dojindo Molecular Technologies, Inc.) containing a “water-soluble tetrazolium salt (WST-8)” as a coloring reagent was added to each well. Then, the 96-well plate was returned to the CO2 incubator and incubated under conditions of 37° C., and 5% CO2 for 1.5 hours to 2 hours.
(§10) After the incubation was completed, the cell culture solution to which the reagent was added was collected and the cell viability (%) was evaluated according to a colorimetric method in which an absorbance at a wavelength of 450 nm (value corrected by the absorbance at a wavelength of 650 nm: A450-A650) was measured based on the reduction of the tetrazolium salt. Specifically, a measured value (measured absorbance) of a comparative test group in which the above incubation was performed for 48 hours simply in a culture medium containing no peptide was set as a cell viability of 100%, and the cell viability (%) was calculated from the measured absorbance of each test cell line as a relative value.
(§11) Specifically, a value (value multiplied by 100 for convenience) obtained by dividing the cell viability of target tumor cells (here, A2058 cells) when the sample peptides were added at a concentration of 12.5 μM or 25 μM measured as described above by the cell viability of comparative normal cells (here, MCF-12F cells) measured under the same conditions, that is,
(§12) {(A2058 cell viability)/(MCF-12F cell viability)}×100 was calculated as a specific cell viability of the tumor cells, and the test tumor cells selective antitumor activity with respect to normal cells was evaluated using such a specific cell viability as an index.

[2] = test system: human melanoma (A2058) cell lines; assay: as above; type: cell-based; settings: 48 hours, A2058 versus normal MCF-12F cells
Method: as §1, §2, §3, §4, §5, §6, §7, §8, §9, §10, §11, §12

Row | SMILES | viability [1] | Specific cell viability {(A2058 cell viability)/(MCF-12F cell viability)}×100 ([2]; peptide 12.5 μM) | Specific cell viability {(A2058 cell viability)/(MCF-12F cell viability)}×100 ([2]; peptide 25 μM)
1 | CC(C)C[C@H](NC(=O)CNC(=O)[C@H](CCC(=O)O)NC(=O)[C@H](CCCNC(=N)N)NC(=O)[C@H](CC(C)C)NC(=O)[C@H](Cc1ccccc1)NC(=O)[C@@H](N)Cc1c[nH]c2ccccc12)C(=O)N[C@@H](CC(C)C)C(=O)N[C@@H](Cc1ccccc1)C(=O)N[C@H](C(=O)N[C@@H](C)C(=O)N[C@@H](CC(C)C)C(=O)N[C@@H](C)C(=O)N[C@@H](C)C(=O)N[C@@H](CO)C(=O)N[C@H](C(=O)N[C@@H](Cc1ccccc1)C(=O)N[C@@H](CO)C(=O)N[C@@H](CC(C)C)C(=O)N[C@@H](CC(C)C)C(=O)N[C@@H](Cc1ccccc1)C(=O)N[C@@H](CCCNC(=N)N)C(=O)N[C@@H](CCCCN)C(=O)N[C@@H](CCCCN)C(=O)N[C@@H](CCCNC(=N)N)C(=O)N[C@@H](CCCNC(=N)N)C(=O)N[C@@H](CCC(N)=O)C(=O)N[C@@H](CCCNC(=N)N)C(=O)N[C@@H](CCCNC(=N)N)C(=O)N[C@@H](CCCNC(=N)N)C(N)=O)[C@@H](C)O)[C@@H](C)O [Sample 3] (H-WFLREGLLFTALAASTFSLLFRKKRRQRRR-NH2; N-terminus assumed) | 4.6% | 68.20 | 25.41
2 | CC[C@H](C)[C@H](NC(=O)[C@H](C)NC(=O)[C@H](CC(C)C)NC(=O)[C@H](CC(C)C)NC(=O)[C@H](CO)NC(=O)[C@H](CC(C)C)NC(=O)[C@@H](NC(=O)[C@H](CO)NC(=O)[C@H](C)NC(=O)[C@@H](NC(=O)[C@H](CC(C)C)NC(=O)[C@H](C)NC(=O)[C@@H](NC(=O)[C@H](Cc1ccccc1)NC(=O)[C@@H](NC(=O)CNC(=O)CNC(=O)[C@@H](N)CCC(=O)O)C(C)C)C(C)C)[C@@H](C)O)C(C)C)C(=O)N[C@@H](C)C(=O)N[C@@H](CC(C)C)C(=O)N[C@@H](CCC(=O)O)C(=O)N[C@@H](CCCNC(=N)N)C(=O)N[C@@H](CCCCN)C(=O)N[C@@H](CCCCN)C(=O)N[C@@H](CCCNC(=N)N)C(=O)N[C@@H](CCCNC(=N)N)C(=O)N[C@@H](CCC(N)=O)C(=O)N[C@@H](CCCNC(=N)N)C(=O)N[C@@H](CCCNC(=N)N)C(=O)N[C@@H](CCCNC(=N)N)C(N)=O [Sample 5] (H-EGGVFVALTASVLSLLAIALERKKRRQRRR-NH2; N-terminus assumed) | 5.5% | 88.08 | 10.09
3 | CSCC[C@H](NC(=O)[C@H](C)N)C(=O)N[C@@H](Cc1ccc(O)cc1)C(=O)N[C@@H](CC(C)C)C(=O)N[C@@H](Cc1ccccc1)C(=O)N[C@@H](CC(C)C)C(=O)NCC(=O)N[C@@H](CC(N)=O)C(=O)N[C@@H](CC(C)C)C(=O)N[C@@H](C)C(=O)N[C@@H](C)C(=O)N[C@@H](CO)C(=O)N[C@@H](CC(=O)O)C(=O)N[C@@H](CC(C)C)C(=O)N[C@@H](CC(C)C)C(=O)N[C@@H](C)C(=O)NCC(=O)N[C@H](C(=O)N[C@@H](C)C(=O)N[C@@H](Cc1ccccc1)C(=O)N[C@H](C(=O)N[C@@H](C)C(=O)N[C@@H](CC(N)=O)C(=O)N[C@H](C(=O)N[C@@H](CC(C)C)C(=O)N[C@@H](CC(C)C)C(=O)N[C@@H](CO)C(=O)NCC(=O)N[C@@H](CO)C(=O)N[C@@H](CCCNC(=N)N)C(=O)N[C@@H](CCCCN)C(=O)N[C@@H](CCCCN)C(=O)N[C@@H](CCCNC(=N)N)C(=O)N[C@@H](CCCNC(=N)N)C(=O)N[C@@H](CCC(N)=O)C(=O)N[C@@H](CCCNC(=N)N)C(=O)N[C@@H](CCCNC(=N)N)C(=O)N[C@@H](CCCNC(=N)N)C(N)=O)[C@@H](C)O)C(C)C)C(C)C [Sample 1] (H-AMYLFLGNLAASDLLAGVAFVANTLLSGSRKKRRQRRR-NH2; N-terminus assumed) | 0.7% | 114.85 | 16.67
4 | CC[C@H](C)[C@H](NC(=O)[C@H](Cc1ccccc1)NC(=O)CNC(=O)[C@H](Cc1ccc(O)cc1)NC(=O)[C@@H](N)C(C)C)C(=O)NCC(=O)N[C@@H](CC(C)C)C(=O)N[C@@H](CS)C(=O)N[C@@H](Cc1c[nH]c2ccccc12)C(=O)N[C@@H](CC(C)C)C(=O)N[C@@H](CC(C)C)C(=O)N[C@@H](C)C(=O)N[C@@H](C)C(=O)N[C@@H](CC(C)C)C(=O)N[C@@H](CC(C)C)C(=O)NCC(=O)N[C@@H](CCSC)C(=O)N[C@@H](CC(C)C)C(=O)N1CCC[C@H]1C(=O)N[C@@H](CC(C)C)C(=O)N[C@@H](CC(C)C)C(=O)N[C@@H](CCCNC(=N)N)C(=O)N[C@@H](CCCCN)C(=O)N[C@@H](CCCCN)C(=O)N[C@@H](CCCNC(=N)N)C(=O)N[C@@H](CCCNC(=N)N)C(=O)N[C@@H](CCC(N)=O)C(=O)N[C@@H](CCCNC(=N)N)C(=O)N[C@@H](CCCNC(=N)N)C(=O)N[C@@H](CCCNC(=N)N)C(N)=O [Sample 4] (H-VYGFIGLCWLLAALLGMLPLLRKKRRQRRR-NH2; N-terminus assumed) | 5.3% | 46.80 | 35.10
